What all share (type): functional, cell-based
Assay [1] is described as follows: Anticancer activity against mouse B16-F1 cells after 96 hrs by SRB assay. Conditions: B16-F1, 96 h.
Another assay deals with A-375. The assay can be described thus: Anticancer activity against human A375 cells after 96 hrs by SRB assay. The note with it: A-375, 96 h.
The test system of another assay is DU-145. The assay can be described thus: Anticancer activity against human DU145 cells after 96 hrs by SRB assay. Conditions: DU-145, 96 h. In general terms: Sulforhodamine B stains cellular protein and so reports cell mass.
The next assay relates to PC-3. The assay can be described thus: Anticancer activity against human PC3 cells after 96 hrs by SRB assay. The note with it: PC-3, 96 h.
The test system of a further assay is LNCaP. The assay can be described thus: Anticancer activity against human LNCAP cells after 96 hrs by SRB assay.
For another assay, the system named is PPC-1. Description: Anticancer activity against human PPC1 cells after 96 hrs by SRB assay. The note with it: PPC-1, 96 h.
Assay [2] in a line: Anticancer activity against human WM164 cells after 96 hrs by SRB assay. The note with it: WM164, 96 h.

Our source for the IC50 values is ChEMBL document CHEMBL1828586 (J Med Chem, 2011).

Structures are written as SMILES.

By IC50 is commonly meant the concentration that gives 50% inhibition. `COc1cc(C(=O)c2cc(-c3ccccc3)n[nH]2)cc(OC)c1OC`: the IC50 in assay [1] is 245 nM; in the assay on A-375 it was 100 nM; in the assay with DU-145, 145 nM; with PC-3, 101 nM; in the assay on LNCaP, 101 nM; in the assay with PPC-1 it was 84 nM.

Regarding `COc1cc(/C(=N/N)c2csc(-c3ccccc3)n2)cc(OC)c1OC`, the IC50 in assay [1] is 2000 nM; in the assay on A-375, 900 nM; with DU-145, 1210 nM; in the assay on PC-3, 1120 nM; with LNCaP, 1800 nM; with PPC-1, 872 nM.

Take `COc1cc(Sc2cccc(-c3ccccc3)c2)cc(OC)c1OC`: the IC50 in assay [1] is 2400 nM; with A-375, 1600 nM; with DU-145 it was over 10000 nM; with PC-3, over 10000 nM; in the assay with LNCaP, 2300 nM; in the assay on PPC-1, 2300 nM. Further, the midpoint of inhibition in assay [2], the IC50, lay at 2 µM.

For `COc1cc(/C(=N/O)c2csc(-c3ccccc3)n2)cc(OC)c1OC`, the half-inhibitory concentration (IC50) came to 300 nM in assay [1]; 200 nM in the assay on A-375; 103 nM with DU-145; 120 nM in the assay on PC-3; 169 nM with LNCaP; 144 nM in the assay on PPC-1.

Turning to `COc1cc(C(=O)c2csc(-c3ccccc3)c2)cc(OC)c1OC`, the IC50 came to 72 nM in assay [1]; 15 nM in the assay on A-375; 26 nM in the assay on DU-145; 12 nM in the assay with PC-3; 15 nM with PPC-1.

As for `COc1cc([S+]([O-])c2cccc(-c3ccccc3)c2)cc(OC)c1OC` (configuration not stated), the 50% inhibitory concentration (IC50) (in assay [1]; with A-375; in the assay on DU-145; in the assay with PC-3; with LNCaP; in the assay on PPC-1) was over 10000 nM in each case. In assay [2], the half-maximal inhibitory concentration (IC50) was over 10 µM.

Take `COc1cc(C(=O)[C@@H]2COC(c3ccccc3)=N2)cc(OC)c1OC`: the figures for the IC50 (in assay [1]; in the assay with A-375; in the assay on PPC-1) were 6500 nM, 500 nM and 1100 nM, respectively.

Regarding `COc1cc(NC(=O)c2csc(-c3ccccc3)n2)cc(OC)c1OC`, the IC50 in assay [1] is over 30000 nM; in the assay on A-375 it was over 30000 nM; in the assay on DU-145 it was over 10000 nM; in the assay with PC-3, over 10000 nM; in the assay on LNCaP, over 10000 nM; with PPC-1, over 10000 nM.

With `COc1cc(C(=O)c2cnc(-c3ccccc3)s2)cc(OC)c1OC`, the IC50 in assay [1] was 12500 nM; in the assay with A-375, 13600 nM; in the assay on DU-145, over 10000 nM; in the assay with PC-3, over 10000 nM; in the assay on LNCaP it was over 10000 nM; in the assay on PPC-1 it was over 10000 nM.

For `COc1cc(C(=O)c2csc(-c3ccc(O)cc3)n2)cc(OC)c1OC`, the IC50 is 110 nM in assay [1]; 100 nM with A-375; 116 nM in the assay on DU-145; 87 nM in the assay with PC-3; 103 nM in the assay with LNCaP; 76 nM with PPC-1.

As for `CO/N=C(/c1cc(OC)c(OC)c(OC)c1)c1csc(-c2ccccc2)n1`, the IC50 was 3800 nM in assay [1]; 2900 nM in the assay with A-375; over 10000 nM with DU-145; over 10000 nM in the assay on PC-3; over 10000 nM in the assay with LNCaP; 3.4 µM in assay [2].

As for `COc1cc(-c2csc(-c3ccccc3)n2)cc(OC)c1OC`, the half-inhibitory concentration (IC50) (in assay [1]; in the assay on A-375; with DU-145; with PC-3; in the assay with LNCaP; in the assay with PPC-1) was over 10000 nM in each case. Also, the IC50 in assay [2] is over 10 µM.

Regarding `CNCc1ccc(-c2nc(C(=O)c3cc(OC)c(OC)c(OC)c3)cs2)cc1`, the IC50 was over 10000 nM in assay [1]; over 10000 nM in the assay with A-375; 10000 nM with DU-145; over 10000 nM in the assay with PC-3; 1140 nM in the assay with LNCaP; 10000 nM in the assay on PPC-1.

In the case of `COc1cc(C(=O)c2csc(-c3ccc(CN(C)C)cc3)n2)cc(OC)c1OC`, the IC50 in assay [1] is over 10000 nM; in the assay with A-375, over 10000 nM; in the assay with DU-145 it was over 10000 nM; in the assay on PC-3, over 10000 nM; in the assay on LNCaP, 1020 nM; in the assay with PPC-1 it was over 10000 nM.

For `COc1cc(C(=O)Nc2csc(-c3ccccc3)n2)cc(OC)c1OC`, the IC50 in assay [1] is over 30000 nM; in the assay on A-375 it was over 30000 nM; with DU-145, over 10000 nM; with PC-3, over 10000 nM; in the assay with LNCaP it was over 10000 nM; in the assay with PPC-1, over 10000 nM.

For the compound `CO/N=C(\c1cc(OC)c(OC)c(OC)c1)c1csc(-c2ccccc2)n1`, the IC50 in assay [1] is over 10000 nM; in the assay with A-375, over 10000 nM; with DU-145, over 10000 nM; with PPC-1, over 10000 nM; in assay [2] it was over 10 µM.

With `COc1cc(C(=O)c2cc(-c3ccccc3)on2)cc(OC)c1OC`, the IC50 was over 30000 nM in assay [1]; over 30000 nM in the assay with A-375; over 10000 nM with DU-145; over 10000 nM with PC-3; over 10000 nM in the assay on LNCaP; over 10000 nM with PPC-1.

`COc1cc(C(=O)c2ccc(-c3ccccc3)o2)cc(OC)c1OC`: the IC50 in assay [1] was found to be 151 nM; in the assay on A-375, 27 nM; in the assay with DU-145, 35 nM; in the assay on PC-3 it was 21 nM; in the assay with LNCaP it was 23 nM; with PPC-1, 20 nM.

Take `COc1cc(C(=O)c2csc(-c3ccc(CNC(=O)OC(C)(C)C)cc3)n2)cc(OC)c1OC`: the IC50 amounted to 2900 nM in assay [1]; 7900 nM in the assay on A-375; 4300 nM with DU-145; 3100 nM in the assay on PC-3; 2600 nM with LNCaP; 2700 nM in the assay with PPC-1.

On to `COc1cc(S(=O)(=O)c2cccc(-c3ccccc3)c2)cc(OC)c1OC`, for which the IC50 (in assay [1]; with A-375; in the assay with DU-145; in the assay with PC-3; in the assay with LNCaP; with PPC-1) was over 10000 nM throughout. For the same compound, in assay [2], the IC50 was over 10 µM.

Regarding `COc1cc(NS(=O)(=O)c2cccc(-c3ccccc3)c2)cc(OC)c1OC`, the IC50 (in assay [1]; in the assay with A-375; in the assay with DU-145; in the assay on PC-3; in the assay on LNCaP; in the assay with PPC-1) was over 10000 nM each time. In assay [2], the concentration for half-maximal inhibition (IC50) was over 10 µM.

Consider `COc1cc(C(=C(C)C)c2csc(-c3ccccc3)n2)cc(OC)c1OC`, for which the IC50 was 3800 nM in assay [1]; 1900 nM with A-375; 2650 nM in the assay on DU-145; 2470 nM with PC-3; 1390 nM with LNCaP; 2040 nM in the assay with PPC-1. This compound also gave an IC50 in assay [2] of 3.7 µM.

With `COc1cc(C(=O)c2csc(-c3cc4ccccc4[nH]3)n2)cc(OC)c1OC`, the half-inhibitory concentration (IC50) in assay [1] turned out to be 43 nM; with A-375, 19 nM; with DU-145, 32 nM; with PC-3 it was 24 nM; with LNCaP, 28 nM; in the assay on PPC-1, 28 nM.

Take `COc1cc(/C(=C\C#N)c2csc(-c3ccccc3)n2)cc(OC)c1OC`: the IC50 in assay [1] turned out to be 1200 nM; in the assay with A-375, 1200 nM; in the assay on DU-145, 10000 nM; in the assay on PC-3, 10000 nM; with LNCaP, 1990 nM; in the assay on PPC-1 it was 10000 nM. Further, the half-maximal inhibitory concentration (IC50) in assay [2] worked out at 1 µM.

For `COc1cc(/C(=N\O)c2csc(-c3ccccc3)n2)cc(OC)c1OC`, the IC50 in assay [1] is 11400 nM; in the assay with A-375, 7800 nM; in the assay with DU-145, over 10000 nM; in the assay with PC-3, over 10000 nM; in the assay with LNCaP, over 10000 nM; in the assay with PPC-1 it was over 10000 nM.

As for `COc1cc(/C(=N\N)c2csc(-c3ccccc3)n2)cc(OC)c1OC`, the IC50 in assay [1] is 1800 nM; with A-375, 600 nM; in the assay on PC-3, 1040 nM; in the assay with LNCaP, 1300 nM; with PPC-1 it was 966 nM.

On to `COc1cc(C(O)c2csc(-c3ccccc3)n2)cc(OC)c1OC` (configuration not stated), for which the IC50 is over 30000 nM in assay [1]; over 30000 nM with A-375; over 10000 nM in the assay on DU-145; over 10000 nM in the assay on PC-3; over 10000 nM in the assay on LNCaP; over 10000 nM with PPC-1.

Regarding `COc1cc(C(=O)[C@@H]2CSC(c3ccc(O[Si](C)(C)C(C)(C)C)cc3)=N2)cc(OC)c1OC`, the IC50 in assay [1] was determined as 500 nM; in the assay with A-375 it was 700 nM; in the assay on DU-145, 434 nM; in the assay on PC-3 it was 183 nM; in the assay on LNCaP, 549 nM; in the assay with PPC-1 it was 246 nM.

Take `COc1cc(C(=O)c2coc(-c3ccccc3)n2)cc(OC)c1OC`: the IC50 in assay [1] was determined as 600 nM; in the assay on A-375, 300 nM; with DU-145, 292 nM; in the assay on PC-3, 292 nM; in the assay on LNCaP, 331 nM; in the assay with PPC-1 it was 343 nM.

Consider `COc1cc(C(=O)c2cccc(-c3ccccc3)c2)cc(OC)c1OC`, for which the IC50 in assay [1] was 500 nM; in the assay on A-375 it was 87 nM; in the assay on DU-145, 171 nM; in the assay on PC-3, 124 nM; in the assay on LNCaP it was 52 nM; in the assay on PPC-1, 80 nM.

On to `COc1cc(C(=O)c2cc(-c3ccccc3)ncn2)cc(OC)c1OC`, for which the IC50 in assay [1] was over 30000 nM; with A-375, over 30000 nM; in the assay on DU-145, 6900 nM; in the assay on PC-3, 8300 nM; with LNCaP, 7000 nM; in the assay with PPC-1, 3700 nM.

Take `COc1cc(C(=O)c2csc(Nc3ccc(C)cc3)n2)cc(OC)c1OC`: the IC50 in the assay on DU-145 came to 35 nM; in the assay on PC-3 it was 38 nM; with LNCaP, 35 nM; in the assay with PPC-1 it was 36 nM.

With `COc1cc(C(=O)N2CCC(c3ccccc3)CC2)cc(OC)c1OC`, the IC50 was over 30000 nM in assay [1]; over 30000 nM in the assay with A-375; over 20000 nM in the assay with DU-145; over 20000 nM with PC-3; over 20000 nM in the assay on LNCaP; over 20000 nM in the assay on PPC-1.
